From patent US20160237071A1, “T-TYPE CALCIUM CHANNEL INHIBITOR” (NISSAN CHEMICAL INDUSTRIES, LTD., priority 2013, published 2016)

Molecular target: T1, Human T-type calcium channel (Cav 3.2) (Homo sapiens, UniProt O95180)
T1 construct: Edward Perez-Reyes, University of Virginia, USA; host or cells: HEK293
Assay: Calcium influx inhibition assay
Assay type: cell-based
Conditions: T-type calcium channel inhibition concentration; Cav 3.2 expressing HEK293 cells, FLIPR Calcium 4 fluorescence; read-out: C50
Protocol: Human T-type calcium channel (Cav 3.2) expressing HEK293 cells were obtained from Prof. Edward Perez-Reyes, University of Virginia, USA. The calcium-sensitive fluorescent dye used was FLIPR Calcium 4 Assay Kit (Molecular Devices).
To a black 96-well plate with a clear bottom coated with type I collagen, the human T-type calcium channel (Cav 3.2) expressing HEK293 cells were seeded and cultured overnight, and the culture medium was removed. A solution of the calcium-sensitive fluorescent dye was added, and the whole was incubated at 37° C. in an atmosphere of 5% carbon dioxide for 30 minutes. To the plate, a diluted solution of a compound was added, and the whole was further incubated at 37° C. in an atmosphere of 5% carbon dioxide for 30 minutes. While fluorescence was continuously analyzed from the bottom with a FlexStation 3 (Molecular Devices), a calcium solution was added. […] From the rise in the fluorescence from the base line, the inhibition percentage was calculated. The logarithms of compound concentrations were plotted with respect to the inhibition activities to obtain an IC50 value (50% inhibition concentration).

T1 sequence (O95180 whole entry): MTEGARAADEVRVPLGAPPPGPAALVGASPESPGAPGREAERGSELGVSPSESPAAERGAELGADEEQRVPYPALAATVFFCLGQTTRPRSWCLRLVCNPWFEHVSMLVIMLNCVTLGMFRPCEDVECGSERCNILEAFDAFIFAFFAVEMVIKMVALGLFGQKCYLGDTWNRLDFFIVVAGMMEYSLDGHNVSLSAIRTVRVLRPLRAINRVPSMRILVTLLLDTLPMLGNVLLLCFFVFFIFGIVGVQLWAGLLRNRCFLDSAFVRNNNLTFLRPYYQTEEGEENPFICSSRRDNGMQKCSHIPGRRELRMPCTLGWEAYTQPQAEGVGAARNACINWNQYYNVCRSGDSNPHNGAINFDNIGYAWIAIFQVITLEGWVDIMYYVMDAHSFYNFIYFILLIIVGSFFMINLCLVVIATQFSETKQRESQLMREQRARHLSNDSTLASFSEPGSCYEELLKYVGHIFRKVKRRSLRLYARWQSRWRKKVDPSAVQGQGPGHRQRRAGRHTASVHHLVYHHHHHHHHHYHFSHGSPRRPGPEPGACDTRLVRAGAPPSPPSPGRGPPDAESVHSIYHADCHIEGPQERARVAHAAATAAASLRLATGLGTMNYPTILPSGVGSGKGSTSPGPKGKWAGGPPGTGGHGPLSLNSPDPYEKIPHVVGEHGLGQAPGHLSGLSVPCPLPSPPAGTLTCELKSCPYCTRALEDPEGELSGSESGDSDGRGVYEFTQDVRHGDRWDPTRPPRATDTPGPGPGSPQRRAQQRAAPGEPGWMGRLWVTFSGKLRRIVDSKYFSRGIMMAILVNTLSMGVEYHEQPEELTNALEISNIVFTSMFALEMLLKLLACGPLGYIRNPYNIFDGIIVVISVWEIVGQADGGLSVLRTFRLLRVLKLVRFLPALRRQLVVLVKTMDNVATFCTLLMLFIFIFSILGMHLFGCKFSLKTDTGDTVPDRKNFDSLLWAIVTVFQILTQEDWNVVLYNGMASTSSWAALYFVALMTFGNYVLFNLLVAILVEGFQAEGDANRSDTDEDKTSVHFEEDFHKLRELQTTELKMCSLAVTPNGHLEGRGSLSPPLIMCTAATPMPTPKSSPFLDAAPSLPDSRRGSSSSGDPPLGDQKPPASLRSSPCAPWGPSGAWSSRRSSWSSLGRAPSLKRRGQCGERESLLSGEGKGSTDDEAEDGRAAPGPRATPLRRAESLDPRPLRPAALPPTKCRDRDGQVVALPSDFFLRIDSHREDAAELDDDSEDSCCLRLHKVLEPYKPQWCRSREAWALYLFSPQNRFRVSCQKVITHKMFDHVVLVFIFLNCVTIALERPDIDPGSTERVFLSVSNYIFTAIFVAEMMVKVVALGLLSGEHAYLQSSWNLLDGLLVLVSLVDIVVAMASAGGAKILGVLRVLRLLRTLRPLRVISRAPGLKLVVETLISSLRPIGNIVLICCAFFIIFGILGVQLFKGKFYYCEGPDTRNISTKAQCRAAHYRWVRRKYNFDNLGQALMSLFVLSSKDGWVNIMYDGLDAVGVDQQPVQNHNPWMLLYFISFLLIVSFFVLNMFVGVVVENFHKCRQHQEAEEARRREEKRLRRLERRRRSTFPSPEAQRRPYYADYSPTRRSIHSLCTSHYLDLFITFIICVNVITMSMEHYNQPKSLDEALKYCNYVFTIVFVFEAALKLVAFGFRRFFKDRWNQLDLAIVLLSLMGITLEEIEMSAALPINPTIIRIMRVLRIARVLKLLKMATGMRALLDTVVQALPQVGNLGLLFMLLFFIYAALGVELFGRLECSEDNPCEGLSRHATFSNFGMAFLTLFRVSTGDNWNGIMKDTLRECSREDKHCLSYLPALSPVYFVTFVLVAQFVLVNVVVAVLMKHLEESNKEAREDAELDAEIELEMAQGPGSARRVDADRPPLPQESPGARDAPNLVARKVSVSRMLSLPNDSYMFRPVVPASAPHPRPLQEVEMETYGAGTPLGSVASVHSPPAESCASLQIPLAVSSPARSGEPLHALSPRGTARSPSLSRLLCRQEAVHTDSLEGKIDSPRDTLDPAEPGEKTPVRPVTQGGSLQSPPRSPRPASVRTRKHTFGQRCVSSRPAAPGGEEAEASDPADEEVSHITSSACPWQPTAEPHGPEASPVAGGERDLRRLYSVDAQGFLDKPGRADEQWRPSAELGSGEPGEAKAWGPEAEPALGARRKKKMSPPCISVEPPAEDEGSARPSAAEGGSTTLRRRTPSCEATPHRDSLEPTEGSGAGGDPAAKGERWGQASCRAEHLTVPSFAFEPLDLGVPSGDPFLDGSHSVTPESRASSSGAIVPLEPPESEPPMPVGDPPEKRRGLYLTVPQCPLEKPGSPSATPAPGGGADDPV

| Compound | IC50 [nM] |
| --- | --- |
| COc1ccc2c(c1)CN(c1nc(C)n(Cc3ccc(C(F)(F)F)s3)c(=O)n1)CC2O (stereo not drawn) [8b] | 790 |
| COc1cc2c(cc1OC)CN(c1ncn(Cc3ccc(C(F)(F)F)s3)c(=O)n1)CC2 [compound 2] | 540 |
| N#Cc1ccc2c(c1)CN(c1ncn(Cc3ccc(C(F)(F)F)s3)c(=O)n1)CC2 [compound 6] | 1800 |
| COc1ccc2c(c1)C(O)CN(c1nc(C)n(Cc3ccc(OS(=O)(=O)C(F)(F)F)nc3)c(=O)n1)C2 (stereo not drawn) [compound 10] | 320 |
| Cc1nc(N2CCc3cc(Cl)ncc3C2)nc(=O)n1Cc1ccc(C(F)(F)F)s1 [compound 16] | 650 |
| Cc1nc(N2CCc3nc(Cl)ccc3C2)nc(=O)n1Cc1ccc(C(F)(F)F)s1 [compound 17] | 350 |
| Cc1nc(N2CCc3sc(CO)cc3C2)nc(=O)n1Cc1ccc(C(F)(F)F)s1 [compound 20] | 400 |
| COc1nc2c(s1)CN(c1nc(C)n(Cc3ccc(C(F)(F)F)s3)c(=O)n1)CC2 [compound 21] | 360 |
| Cc1nc(N2Cc3ccc(OCC(F)(F)F)cc3C(O)C2)nc(=O)n1Cc1cnc(C(F)(F)F)s1 (stereo not drawn) [compound 23] | 340 |
| COc1ccc2c(c1)CCN(c1nc(C)n(Cc3cnc(C(F)(F)F)s3)c(=O)n1)C2 [compound 24] | 940 |
| COc1ccc2c(c1)C(O)CN(c1nc(C)n(Cc3cnc(C(F)(F)F)s3)c(=O)n1)C2 (stereo not drawn) [compound 25] | 450 |
| COc1ccc2c(c1)C(O)CN(c1nc(C)n(Cc3ccc(F)cc3)c(=O)n1)C2 (stereo not drawn) [compound 26] | 3000 |
| CCOC(=O)C1Cc2ccccc2CN1c1nc(C)n(Cc2ccc(C(F)(F)F)s2)c(=O)n1 (stereo not drawn) [compound 27] | 2800 |
| Cc1nc(N2CCc3c(Cl)ccc(Cl)c3C2)nc(=O)n1Cc1ccc(C(F)(F)F)s1 [compound 28] | 320 |
| Cc1ccc2c(n1)CCN(c1nc(C)n(Cc3ccc(C(F)(F)F)s3)c(=O)n1)C2 [compound 30] | 3200 |
| Cc1nc(N2CCc3ccccc32)nc(=O)n1Cc1ccc(C(F)(F)F)s1 [compound 34] | 750 |
| COc1ccc2c(c1)C(=O)CN(c1nc(C)n(Cc3ccc(C(F)(F)F)s3)c(=O)n1)C2 [compound 36] | 520 |
| Cc1nc(N2CCc3ccc(C(F)(F)F)cc3C2)nc(=O)n1Cc1ccc(C(F)(F)F)s1 [compound 43] | 320 |
| Cc1nc(N2CCc3ccccc3C2)nc(=O)n1Cc1ccc(C(F)(F)F)s1 [compound 44] | 320 |
| Cc1nc(N2Cc3ccc(OCC(N)=O)cc3C(O)C2)nc(=O)n1Cc1ccc(C(F)(F)F)s1 (stereo not drawn) [compound 45] | 320 |
| Cc1nc(N2Cc3ccc(OCC(F)(F)F)cc3C2)nc(=O)n1Cc1ccc(C(F)(F)F)s1 [compound 46] | 360 |
| COc1ccc2c(c1)CN(c1nc(C)n(Cc3ccc(C(F)(F)F)s3)c(=O)n1)C2 [compound 48] | 1900 |
| COc1ccc2c(c1)CCCN(c1nc(C)n(Cc3ccc(C(F)(F)F)s3)c(=O)n1)C2 [compound 49] | 480 |
| COc1ccc2c(c1OC)C(O)CN(c1nc(C)n(Cc3ccc(C(F)(F)F)s3)c(=O)n1)C2 (stereo not drawn) [compound 50] | 410 |
| CCOC(=O)c1cc2c(s1)CCN(c1nc(C)n(Cc3ccc(C(F)(F)F)s3)c(=O)n1)C2 [compound 51] | 340 |

Other lines, results leading:

| IC50 [nM] | Compound |
| --- | --- |
| 63 | COc1cccc2c1C(O)CN(c1nc(C)n(Cc3ccc(C(F)(F)F)s3)c(=O)n1)C2 (stereo not drawn) [8a] |
| 4.9 | COc1ccc2c(c1)[C@@H](O)CN(c1nc(C)n(Cc3ccc(C(F)(F)F)s3)c(=O)n1)C2 [9a] |
| 130 | COc1ccc2c(c1)[C@H](O)CN(c1nc(C)n(Cc3ccc(C(F)(F)F)s3)c(=O)n1)C2 [9b] |
| 62 | O=c1nc(N2CCc3cc(C(F)(F)F)ccc3C2)ncn1Cc1ccc(C(F)(F)F)s1 [compound 1] |
| 95 | COc1ccc2c(c1)C(O)CN(c1ncn(Cc3ccc(C(F)(F)F)s3)c(=O)n1)C2 (stereo not drawn) [compound 3] |
| 20 | COc1ccc2c(c1)C(O)CN(c1nc(C)n(Cc3ccc(C(F)(F)F)s3)c(=O)n1)C2 (stereo not drawn) [compound 4] |
| 320 | Cc1nc(N2CCc3cc(OCC(F)(F)F)ccc3C2)nc(=O)n1Cc1cnc(C(F)(F)F)s1 [compound 5] |
| 34 | O=c1nc(N2CCc3cc(OC(F)F)ccc3C2)ncn1Cc1ccc(C(F)(F)F)s1 [compound 11] |
| 54 | O=c1nc(N2CCc3cc(OS(=O)(=O)C(F)(F)F)ccc3C2)ncn1Cc1ccc(C(F)(F)F)s1 [compound 12] |
| 55 | O=c1nc(N2CCc3cc(OCC(F)(F)F)ccc3C2)ncn1Cc1ccc(C(F)(F)F)s1 [compound 13] |
| 45 | Cc1nc(N2CCc3cc(OC(F)F)ccc3C2)nc(=O)n1Cc1ccc(C(F)(F)F)s1 [compound 14] |
| 10 | Cc1nc(N2Cc3ccc(OCC(F)(F)F)cc3C(O)C2)nc(=O)n1Cc1ccc(C(F)(F)F)s1 (stereo not drawn) [compound 15] |
| 18 | CCOc1ccc2c(c1)C(O)CN(c1nc(C)n(Cc3ccc(C(F)(F)F)s3)c(=O)n1)C2 (stereo not drawn) [compound 18] |
| 260 | Cc1cc2c(s1)CCN(c1nc(C)n(Cc3ccc(C(F)(F)F)s3)c(=O)n1)C2 [compound 19] |
| 310 | COc1ccc2c(n1)CCN(c1nc(C)n(Cc3ccc(C(F)(F)F)s3)c(=O)n1)C2 [compound 22] |
| 40 | COc1ccc2c(c1)CCN(c1nc(C)n(Cc3ccc(C(F)(F)F)s3)c(=O)n1)CC2 [compound 29] |

| IC50 [nM] | Compound |
| --- | --- |
| 240 | Cc1nc(N2CCc3nc(C4CC4)ccc3C2)nc(=O)n1Cc1ccc(C(F)(F)F)s1 [compound 31] |
| 27 | COc1ccc2c(c1)C(N)CN(c1nc(C)n(Cc3ccc(C(F)(F)F)s3)c(=O)n1)C2 (stereo not drawn) [compound 32] |
| 51 | COc1ccc2c(c1)C(F)CN(c1nc(C)n(Cc3ccc(C(F)(F)F)s3)c(=O)n1)C2 (stereo not drawn) [compound 35] |
| 130 | COc1ccc2c(c1)/C(=N/O)CN(c1nc(C)n(Cc3ccc(C(F)(F)F)s3)c(=O)n1)C2 [compound 37] |
| 38 | Cc1nc(N2Cc3ccc(OC(C)C)cc3C(O)C2)nc(=O)n1Cc1ccc(C(F)(F)F)s1 (stereo not drawn) [compound 38] |
| 75 | Cc1nc(N2Cc3ccc(OCC(C)C)cc3C(O)C2)nc(=O)n1Cc1ccc(C(F)(F)F)s1 (stereo not drawn) [compound 39] |
| 250 | Cc1nc(N2CCc3cc(OCC(F)(F)F)ccc3C2)nc(=O)n1Cc1ccc(C(F)(F)F)s1 [compound 40] |
| 50 | Cc1nc(N2CCc3cc(OS(=O)(=O)C(F)(F)F)ccc3C2)nc(=O)n1Cc1ccc(C(F)(F)F)s1 [compound 41] |
| 290 | Cc1nc(N2Cc3ccc(O)cc3C(O)C2)nc(=O)n1Cc1ccc(C(F)(F)F)s1 (stereo not drawn) [compound 42] |
| 52 | Cc1nc(N2Cc3ccc(OCC4CC4)cc3C(O)C2)nc(=O)n1Cc1ccc(C(F)(F)F)s1 (stereo not drawn) [compound 47] |
| 290 | Cc1nc(N2CCc3cc(F)ccc3C2)nc(=O)n1Cc1ccc(C(F)(F)F)s1 [compound 52] |
| 18 | Cc1nc(N2Cc3ccc(OC(F)F)cc3C(O)C2)nc(=O)n1Cc1ccc(C(F)(F)F)s1 (stereo not drawn) [compound 53] |
| 42 | Cc1nc(N2Cc3cc4c(cc3C(O)C2)OCO4)nc(=O)n1Cc1ccc(C(F)(F)F)s1 (stereo not drawn) [compound 54] |
| 6.4 | Cc1nc(N2CCc3c([nH]c4cc(F)ccc34)C2)nc(=O)n1Cc1ccc(C(F)(F)F)s1 [compound 57] |
| 52 | Cc1nc(N2CCc3c([nH]c4cc(F)ccc34)C2)nc(=O)n1Cc1cnc(C(F)(F)F)s1 [compound 58] |
| 270 | Cc1nc(N2CCn3c(nc4cc(F)ccc43)C2)nc(=O)n1Cc1ccc(C(F)(F)F)s1 [compound 59] |
